Experimental data taken from ChEMBL document CHEMBL2440076, “New triarylpyrazoles as broad-spectrum anticancer agents: design, synthesis, and biological evaluation” (Eur J Med Chem, 2013).

Experiments:
Assay type in all cases: functional
NCI-H23 = test: Growth inhibition of human NCI-H23 cells assessed as cell growth at 5X10'-6 M after 48 hrs by sulforhodamine B assay; details: NCI-H23, 48 h, read-out: Activity
UO-31 [1] = test: Growth inhibition of human UO31 cells assessed as cell growth at 5X10'-6 M after 48 hrs by sulforhodamine B assay; details: UO-31, 48 h, read-out: Activity
OVCAR-4 = test: Growth inhibition of human OVCAR4 cells assessed as cell growth at 5X10'-6 M after 48 hrs by sulforhodamine B assay; details: OVCAR-4, 48 h, read-out: Activity
[2] = Growth inhibition of human NCI-ADR-RES cells assessed as cell growth at 3X10'-5 M after 48 hrs by sulforhodamine B assay; details: read-out: Activity
MOLT-4 = test: Growth inhibition of human MOLT4 cells assessed as cell growth at 3X10'-8 M after 48 hrs by sulforhodamine B assay; details: MOLT-4, 48 h, read-out: Activity
KM12 = test: Growth inhibition of human KM12 cells assessed as cell growth at 3X10'-5 M after 48 hrs by sulforhodamine B assay; details: KM12, 48 h, read-out: Activity
SNB-19 [3] = test: Growth inhibition of human SNB19 cells assessed as cell growth at 3X10'-6 M after 48 hrs by sulforhodamine B assay; details: SNB-19, 48 h, read-out: Activity
TK-10 [4] = test: Growth inhibition of human TK10 cells assessed as cell growth at 3X10'-6 M after 48 hrs by sulforhodamine B assay; details: TK-10, 48 h, read-out: Activity
PC-3 = test: Growth inhibition of human PC3 cells assessed as cell growth at 3X10'-6 M after 48 hrs by sulforhodamine B assay; details: PC-3, 48 h, read-out: Activity
MCF7 [5] = test: Growth inhibition of human MCF7 cells assessed as cell growth at 3X10'-5 M after 48 hrs by sulforhodamine B assay; details: MCF7, 48 h, read-out: Activity
LOX IMVI [6] = test: Growth inhibition of human LOXIMVI cells assessed as cell growth at 3X10'-8 M after 48 hrs by sulforhodamine B assay; details: read-out: Activity
ACHN = test: Growth inhibition of human ACHN cells assessed as cell growth at 3X10'-5 M after 48 hrs by sulforhodamine B assay; details: read-out: Activity
CAKI-1 [7] = test: Growth inhibition of human CAKI-1 cells assessed as cell growth at 3X10'-5 M after 48 hrs by sulforhodamine B assay; details: CAKI-1, 48 h, read-out: Activity
NCI-H522 = test: Growth inhibition of human NCI-H522 cells assessed as cell growth at 3X10'-7 M after 48 hrs by sulforhodamine B assay; details: NCI-H522, 48 h, read-out: Activity
NCI-H460 = test: Growth inhibition of human NCI-H460 cells assessed as cell growth at 3X10'-6 M after 48 hrs by sulforhodamine B assay; details: NCI-H460, 48 h, read-out: Activity
SNB-75 = test: Growth inhibition of human SNB75 cells assessed as cell growth at 3X10'-5 M after 48 hrs by sulforhodamine B assay; details: SNB-75, 48 h, read-out: Activity
MDA-MB-435 = test: Growth inhibition of human MDA-MB-435 cells assessed as cell growth at 3X10'-5 M after 48 hrs by sulforhodamine B assay; details: MDA-MB-435, 48 h, read-out: Activity
MCF7 [8] = test: Growth inhibition of human MCF7 cells assessed as cell growth at 3X10'-7 M after 48 hrs by sulforhodamine B assay; details: MCF7, 48 h, read-out: Activity
CAKI-1 [9] = test: Growth inhibition of human CAKI-1 cells assessed as cell growth at 3X10'-7 M after 48 hrs by sulforhodamine B assay; details: CAKI-1, 48 h, read-out: Activity
SK-MEL-2 = test: Growth inhibition of human SK-MEL-2 cells assessed as cell growth at 3X10'-5 M after 48 hrs by sulforhodamine B assay; details: SK-MEL-2, 48 h, read-out: Activity
NCI-H226 = test: Growth inhibition of human NCI-H226 cells assessed as cell growth at 3X10'-6 M after 48 hrs by sulforhodamine B assay; details: NCI-H226, 48 h, read-out: Activity
OVCAR-3 = test: Growth inhibition of human OVCAR3 cells assessed as cell growth at 3X10'-6 M after 48 hrs by sulforhodamine B assay; details: OVCAR-3, 48 h, read-out: Activity
HL-60(TB) = test: Growth inhibition of human HL-60(TB) cells assessed as cell growth at 3X10'-6 M after 48 hrs by sulforhodamine B assay; details: HL-60, 48 h, read-out: Activity
M14 = test: Growth inhibition of human M14 cells assessed as cell growth at 3X10'-5 M after 48 hrs by sulforhodamine B assay; details: M14, 48 h, read-out: Activity
SR = test: Growth inhibition of human SR cells assessed as cell growth at 3X10'-5 M after 48 hrs by sulforhodamine B assay; details: read-out: Activity
SK-OV-3 = test: Growth inhibition of human SKOV3 cells assessed as cell growth at 3X10'-7 M after 48 hrs by sulforhodamine B assay; details: SK-OV-3, 48 h, read-out: Activity
SW-620 = test: Growth inhibition of human SW620 cells assessed as cell growth at 3X10'-9 M after 48 hrs by sulforhodamine B assay; details: SW-620, 48 h, read-out: Activity
HCT-116 = test: Growth inhibition of human HCT116 cells assessed as cell growth at 3X10'-9 M after 48 hrs by sulforhodamine B assay; details: HCT-116, 48 h, read-out: Activity
A498 = test: Growth inhibition of human A498 cells assessed as cell growth at 3X10'-8 M after 48 hrs by sulforhodamine B assay; details: A498, 48 h, read-out: Activity
T47D [10] = test: Growth inhibition of human T47D cells assessed as cell growth at 3X10'-5 M after 48 hrs by sulforhodamine B assay; details: read-out: Activity
SNB-19 [11] = test: Growth inhibition of human SNB19 cells assessed as cell growth at 3X10'-8 M after 48 hrs by sulforhodamine B assay; details: SNB-19, 48 h, read-out: Activity
T47D [12] = test: Growth inhibition of human T47D cells assessed as cell growth at 3X10'-6 M after 48 hrs by sulforhodamine B assay; details: read-out: Activity
OVCAR-8 = test: Growth inhibition of human OVCAR8 cells assessed as cell growth at 3X10'-5 M after 48 hrs by sulforhodamine B assay; details: OVCAR-8, 48 h, read-out: Activity
[13] = Growth inhibition of human NCI-ADR-RES cells assessed as cell growth at 3X10'-7 M after 48 hrs by sulforhodamine B assay; details: read-out: Activity
LOX IMVI [14] = test: Growth inhibition of human LOXIMVI cells assessed as cell growth at 3X10'-6 M after 48 hrs by sulforhodamine B assay; details: read-out: Activity
UO-31 [15] = test: Growth inhibition of human UO31 cells assessed as cell growth at 3X10'-6 M after 48 hrs by sulforhodamine B assay; details: UO-31, 48 h, read-out: Activity
TK-10 [16] = test: Growth inhibition of human TK10 cells assessed as cell growth at 3X10'-9 M after 48 hrs by sulforhodamine B assay; details: TK-10, 48 h, read-out: Activity

## O=C(Nc1cccc(-n2cc(-c3ccncc3)c(-c3ccc(Cl)c(O)c3)n2)c1)Nc1cc(C(F)(F)F)cc(C(F)(F)F)c1
NCI-H23
  growth at 5 µM: -18%
UO-31 [1]
  growth at 5 µM: -45%

## COc1cc(-c2nn(-c3cccc(NC(=O)Nc4ccc(Cl)c(Cl)c4)c3)cc2-c2ccncc2)ccc1Cl
OVCAR-4
  growth at 5 µM: 6%

## COc1cc(-c2nn(-c3cccc(NC(=O)Nc4cc(C(F)(F)F)cc(C(F)(F)F)c4)c3)cc2-c2ccncc2)ccc1Cl
NCI-H23
  growth at 5 µM: -18%
OVCAR-4
  growth at 5 µM: 8%
UO-31 [1]
  growth at 5 µM: -90%

## COc1cc(-c2nn(-c3cccc(NC(=O)c4ccc(Cl)c(C(F)(F)F)c4)c3)cc2-c2ccncc2)ccc1Cl
[2]
  growth at 30 µM: -19%
MOLT-4
  growth at 0.03 µM: 97%
KM12
  growth at 30 µM: 17%
SNB-19 [3]
  growth at 3 µM: 66%
TK-10 [4]
  growth at 3 µM: 74%
PC-3
  growth at 3 µM: 31%
MCF7 [5]
  growth at 30 µM: 13%
LOX IMVI [6]
  growth at 0.03 µM: 91%
ACHN
  growth at 30 µM: 32%
CAKI-1 [7]
  growth at 30 µM: 12%
NCI-H522
  growth at 0.3 µM: 89%
NCI-H460
  growth at 3 µM: 51%
SNB-75
  growth at 30 µM: -2%
MDA-MB-435
  growth at 30 µM: -52%
MCF7 [8]
  growth at 0.3 µM: 89%
CAKI-1 [9]
  growth at 0.3 µM: 85%
SK-MEL-2
  growth at 30 µM: -10%
NCI-H226
  growth at 3 µM: 59%
OVCAR-3
  growth at 3 µM: 43%
HL-60(TB)
  growth at 3 µM: 58%
M14
  growth at 30 µM: 19%
SR
  growth at 30 µM: 4%
SK-OV-3
  growth at 0.3 µM: 103%
SW-620
  growth at 0.003 µM: 98%
HCT-116
  growth at 0.003 µM: 100%
A498
  growth at 0.03 µM: 89%
T47D [10]
  growth at 30 µM: 18%
SNB-19 [11]
  growth at 0.03 µM: 96%
T47D [12]
  growth at 3 µM: 40%
OVCAR-8
  growth at 30 µM: 15%
[13]
  growth at 0.3 µM: 91%
LOX IMVI [14]
  growth at 3 µM: 39%
UO-31 [15]
  growth at 3 µM: 29%
TK-10 [16]
  growth at 0.003 µM: 90%
